Results from patent US20130030017A1, “QUINOLINE DERIVATIVES AS ANTIBACTERIAL AGENTS” (priority 2005, published 2013).
≈ marks a conversion by molar mass, not a printed value.

Assays:
[1] = test system: Streptococcus pyogens (ATCC8668); assay: Microtitre plate assay, IC90 determination (SPY 8668); type: cell-based; details: 90% inhibitory concentration for bacterial growth, 37° C., resazurin fluorescence; for IC90 SPY 8668: 24 hours; for IC90: Streptococcus, ATCC8668, 24 h
Method: (§1) The bacteria used in this study were grown overnight in flasks containing 100 ml Mueller-Hinton Broth (Becton Dickinson—cat. no. 275730) in sterile de-ionized water, with shaking, at 37° C. Stocks (0.5 ml/tube) were stored at −70° C. until use. Bacteria titrations were performed in microtiter plates and colony forming units (CFUs) were determined. In general, an inoculum level of approximately 100 CFUs was used for susceptibility testing.
(§2) Flat-bottom, sterile 96-well plastic microtiter plates were filled with 180 μl of sterile deionized water, supplemented with 0.25% BSA. Subsequently, stock solutions (7.8× final test concentration) of compounds were added in 45 μl volumes in column 2 Serial five-fold dilutions (45 μl in 180 μl) were made directly in the microtiter plates from column 2 to reach column 11. Untreated control samples with (column 1) and without (column 12) inoculum were included in each microtiter plate. Depending on the bacteria type, approximately 10 to 60 CFU per well of bacteria inoculum (100 TCID50), in a volume of 100 μl in 2.8× Mueller-Hinton broth medium, was added to the rows A to H, except column 12. The same volume of broth medium without inoculum was added to column 12 in row A to H. The cultures were incubated at 37° C. for 24 hours under a normal atmosphere (incubator with open air valve and continuous ventilation). At the end of incubation, one day after inoculation, the bacterial growth was quantitated fluorometrically. Therefore resazurin (0.6 mg/ml) was added in a volume of 20 μl to all wells 3 hours after inoculation, and the plates were re-incubated overnight. A change in colour from blue to pink indicated the growth of bacteria. The fluorescence was read in a computer-controlled fluorometer (Cytofluor Biosearch) at an excitation wavelength of 530 nm and an emission wavelength of 590 nm. The % growth inhibition achieved by the compounds was calculated according to standard methods. The IC90 (expressed in μg/ml) was defined as the 90% inhibitory concentration for bacterial growth.

[2] = test system: methicilline resistant Staphylococcus aureus (MRSA) (a clinical isolate from the University of Antwerp); assay: Microtitre plate assay, IC90 determination (STA RMETH); type: cell-based; details: 90% inhibitory concentration for bacterial growth, 37° C., 24 hours, resazurin fluorescence
Method: as §1, §2

[3] = test system: Bacillus subtilis (ATCC43639); assay: Microtitre plate assay, IC90 determination (BSU 43639); type: cell-based; details: 90% inhibitory concentration for bacterial growth, 37° C., 24 hours, resazurin fluorescence
Method: as §1, §2

[4] = test system: Staphylococcus aureus (ATCC29213); assay: Microtitre plate assay, IC90 determination (STA 29213); type: cell-based; details: 90% inhibitory concentration for bacterial growth, 37° C., resazurin fluorescence; for IC90 STA 29213: 24 hours; for IC90: Staphylococcus aureus, ATCC29213, 24 h
Method: as §1, §2

[5] = test system: Listeria monocytogenes (ATCC49594); assay: Microtitre plate assay, IC90 determination (LMO 49594); type: cell-based; details: 90% inhibitory concentration for bacterial growth, 37° C., 24 hours, resazurin fluorescence
Method: as §1, §2

[6] = test system: Enterococcus faecalis (ATCC29212); assay: Microtitre plate assay, IC90 determination (EFA 29212); type: cell-based; details: 90% inhibitory concentration for bacterial growth, 37° C., resazurin fluorescence; for IC90 EFA 29212: 24 hours; for IC90: Enterococcus faecalis, ATCC29212, 24 h
Method: as §1, §2

[7] = test system: Streptococcus pneumoniae (ATCC6305); assay: Microtitre plate assay, IC90 determination (SPN 6305); type: cell-based; details: 90% inhibitory concentration for bacterial growth, 37° C., resazurin fluorescence; for IC90 SPN 6305: 24 hours; for IC90: Streptococcus pneumoniae, ATCC6305, 24 h
Method: as §1, §2

[8] = test system: Pseudomonas aeruginosa (ATCC27853); assay: Microtitre plate assay, IC90 determination (PAE 27853); type: cell-based; details: 90% inhibitory concentration for bacterial growth, 37° C., resazurin fluorescence; for IC90 PAE 27853: 24 hours; for IC90: Pseudomonas aeruginosa, ATCC27853, 24 h
Method: as §1, §2

[9] = test system: Staphylococcus aureus (ATCC25923); assay: Microtitre plate assay, IC90 determination (STA 25923); type: cell-based; details: 90% inhibitory concentration for bacterial growth, 37° C., 24 hours, resazurin fluorescence
Method: as §1
Flat-bottom, sterile 96-well plastic microtiter plates were filled with 180 μl of sterile deionized water, supplemented with 0.25% BSA. Subsequently, stock solutions (7.8× final test concentration) of compounds were added in 45 μl volumes in column 2 Serial five-fold dilutions (45 μl in 180 μl) were made directly in the microtiter plates from column 2 to reach column 11. Untreated control samples with (column 1) and without (column 12) inoculum were included in each microtiter plate. […] At the end of incubation, one day after inoculation, the bacterial growth was quantitated fluorometrically. […] The fluorescence was read in a computer-controlled fluorometer (Cytofluor Biosearch) at an excitation wavelength of 530 nm and an emission wavelength of 590 nm. The % growth inhibition achieved by the compounds was calculated according to standard methods. […]

| SMILES | IC90 SPY 8668 [1] [µg/mL] | IC90 STA RMETH [2] [µg/mL] | IC90 STA 29213 [4] [µg/mL] | IC90 EFA 29212 [6] [µg/mL] | IC90 SPN 6305 [7] [µg/mL] | IC90 PAE 27853 [8] [µg/mL] | melting point [°C] | IC90 [4] [µg/mL] | other results |
| --- | --- | --- | --- | --- | --- | --- | --- | --- | --- |
| COc1nc2ccc(Br)cc2cc1C(c1ccccc1)C(O)(CCc1ccccc1)CCN(C)C (racemic) [Compound 14] | 10.6 (≈ 19.9 µM) | 13.4 (≈ 25.1 µM) | 13.4 (≈ 25.1 µM) | 9.5 (≈ 17.8 µM) | 42.4 (≈ 79.5 µM) | 9.5 (≈ 17.8 µM) | – | – | IC90 BSU 43639 [3]: 13.4 µg/mL (≈ 25.1 µM); IC90 LMO 49594 [5]: 10.6 µg/mL (≈ 19.9 µM); IC90 STA 25923 [9]: 11.9 µg/mL (≈ 22.3 µM) |
| COc1nc2ccc(Br)cc2cc1C(c1ccccc1)C(O)(CCc1ccccc1)CCN(C)C (racemic) [Compound 15] | 4.2 (≈ 7.87 µM) | 10.6 (≈ 19.9 µM) | 4.8 (≈ 9 µM) | 4.8 (≈ 9 µM) | 7.5 (≈ 14.1 µM) | 4.8 (≈ 9 µM) | – | – | IC90 BSU 43639 [3]: 10.6 µg/mL (≈ 19.9 µM); IC90 LMO 49594 [5]: 2.1 µg/mL (≈ 3.94 µM); IC90 STA 25923 [9]: 4.8 µg/mL (≈ 9 µM) |
| COc1nc2ccc(Br)cc2cc1C(c1ccccc1)C(O)(CCc1ccc(F)cc1)CCN(C)C (racemic) [Compound 50] | 1.7 (≈ 3.08 µM) | 8.7 (≈ 15.8 µM) | 1.7 (≈ 3.08 µM) | 1.7 (≈ 3.08 µM) | 0.4 (≈ 0.725 µM) | 1.7 (≈ 3.08 µM) | – | – | IC90 BSU 43639 [3]: 9.8 µg/mL (≈ 17.8 µM); IC90 LMO 49594 [5]: 8.7 µg/mL (≈ 15.8 µM) |
| COc1nc2ccc(Br)cc2cc1C(c1ccccc1)C(O)(CCc1ccc(F)c(F)c1)CCN(C)C (racemic) [Compound 51] | 5.7 (≈ 10 µM) | 11.4 (≈ 20 µM) | 1.8 (≈ 3.16 µM) | 10.1 (≈ 17.7 µM) | 0.4 (≈ 0.702 µM) | 9.0 (≈ 15.8 µM) | – | – | – |
| COc1nc2ccc(Br)cc2cc1C(c1ccccc1)C(O)(CCc1ccc(C)cc1)CCN(C)C (racemic) [Compound 53] | 1.7 (≈ 3.1 µM) | 13.8 (≈ 25.2 µM) | 1.7 (≈ 3.1 µM) | 6.9 (≈ 12.6 µM) | 1.7 (≈ 3.1 µM) | 3.9 (≈ 7.12 µM) | – | – | – |
| COc1nc2ccc(C)cc2cc1C(c1ccccc1)C(O)(CCc1ccccc1)CCN(C)C (stereo not shown) [Compound 1] | 7.4 (≈ 15.8 µM) | – | – | – | – | – | 142 | 9.4 (≈ 20.1 µM) | IC90 [6]: 37.2 µg/mL (≈ 79.4 µM); IC90 [7]: 1.9 µg/mL (≈ 4.05 µM); IC90 [8]: 18.7 µg/mL (≈ 39.9 µM) |
| COc1nc2cccc(Br)c2cc1C(c1ccccc1)C(O)(CCc1ccccc1)CCN(C)C (stereo not shown) [Compound 5] | – | – | 23.8 (≈ 44.6 µM) | – | 4.8 (≈ 9 µM) | – | 156 | – | IC90 [1]: 42.4 µg/mL (≈ 79.5 µM); IC90 [6]: 53.4 µg/mL (≈ 100 µM); IC90 [8]: 53.4 µg/mL (≈ 100 µM) |
| COc1nc2ccc(Br)cc2cc1C(c1ccccc1)C(O)(CCc1cccc2ccccc12)CCN(C)C (stereo not shown) [Compound 7] | – | – | 52.0 (≈ 89.1 µM) | – | 46.4 (≈ 79.5 µM) | – | 206 | – | – |
| COc1nc2ccc(Br)cc2cc1C(c1ccccc1)C(O)(CCc1cccc2ccccc12)CCN(C)C (stereo not shown) [Compound 8] | – | – | 1.9 (≈ 3.26 µM) | – | 11.6 (≈ 19.9 µM) | – | 160 | – | IC90 [1]: 1.9 µg/mL (≈ 3.26 µM); IC90 [2]: 1.9 µg/mL (≈ 3.26 µM); IC90 [5]: 1.9 µg/mL (≈ 3.26 µM); IC90 [6]: 1.9 µg/mL (≈ 3.26 µM); IC90 [8]: 2.3 µg/mL (≈ 3.94 µM) |
| COc1nc2ccc(Cl)cc2cc1C(c1ccccc1)C(O)(CCc1ccccc1)CCN(C)C (stereo not shown) [Compound 9] | – | – | – | – | – | – | 172 | 24.5 (≈ 50.1 µM) | IC90 [7]: 1.7 µg/mL (≈ 3.48 µM) |
| CSc1nc2ccc(Br)cc2cc1C(c1ccccc1)C(O)(CCc1ccccc1)CCN(C)C (stereo not shown) [Compound 10] | – | – | – | – | 9.8 (≈ 17.8 µM) | – | 191 | 13.8 (≈ 25.1 µM) | – |
| COc1nc2ccccc2cc1C(c1ccccc1)C(O)(CCc1ccccc1)CCN(C)C (stereo not shown) [Compound 12] | – | – | – | – | – | – | 122 | 10.2 (≈ 22.4 µM) | IC90 [7]: 9.1 µg/mL (≈ 20 µM) |
